Key:
Test in all cases: relative viability (nuclei count vs DMSO), 5 days (fraction); higher = more cells survive
HCC-827 = test system: HCC-827
How it was run: (§1)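 A single step with final 0.05% Triton X-100, 1% formaldehyde and 1 ug/ml Hoechst fixed the cells and stained nuclei 5 days after treatment. Lung cancer cell lines in 1536-well plates had been treated by pin tool the day after seeding with one drug alone or a fixed anchor-drug dose plus five library-drug doses (not always all listed) in √10 steps, and nuclei were counted on 4× images. Relative viability is the ratio of nuclei in treated wells to nuclei in vehicle wells, taken as the median of duplicate plates.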

NCI-H1395 = test system: NCI-H1395
How it was run: as §1

LCLC-103H = test system: LCLC-103H
How it was run: as §1

EPLC-272H = test system: EPLC-272H
How it was run: as §1

NCI-H23 = test system: NCI-H23
How it was run: as §1

NCI-H2405 = test system: NCI-H2405
How it was run: as §1

H3255 = test system: H3255
How it was run: as §1

NCI-H1944 = test system: NCI-H1944
How it was run: as §1

NCI-H2087 = test system: NCI-H2087
How it was run: as §1

NCI-H1355 = test system: NCI-H1355
How it was run: as §1

LCLC-97TM1 = test system: LCLC-97TM1
How it was run: as §1

UMC-11 = test system: UMC-11
How it was run: as §1

NCI-H2085 = test system: NCI-H2085
How it was run: as §1

SK-MES-1 = test system: SK-MES-1
How it was run: as §1

HCC-44 = test system: HCC-44
How it was run: as §1

NCI-H520 = test system: NCI-H520
How it was run: as §1

NCI-H1993 = test system: NCI-H1993
How it was run: as §1

NCI-H1793 = test system: NCI-H1793
How it was run: as §1

NCI-H650 = test system: NCI-H650
How it was run: as §1

EMC-BAC-2 = test system: EMC-BAC-2
How it was run: as §1

NCI-H1563 = test system: NCI-H1563
How it was run: as §1

NCI-H1651 = test system: NCI-H1651
How it was run: as §1

NCI-H322M = test system: NCI-H322M
How it was run: as §1

ChaGo-K-1 = test system: ChaGo-K-1
How it was run: as §1

C[C@@H]1CN(CC(=O)Nc2ccc3c(c2)Cc2cccc(-c4cc(=O)cc(N5CCOCC5)o4)c2S3)C[C@H](C)O1 + CCNC(=O)c1noc(-c2cc(C(C)C)c(O)cc2O)c1-c1ccc(CN2CCOCC2)cc1 [Luminespib] (partner 0.01 µM)
relative viability (HCC-827; first compound 0.04 µM): 0.547 | relative viability (HCC-827; first compound 0.1265 µM): 0.469 | relative viability (HCC-827; first compound 0.4 µM): 0.915 | relative viability (HCC-827; first compound 4 µM): 0.681 | relative viability (NCI-H1395; first compound 0.04 µM): 0.695 | relative viability (NCI-H1395; first compound 0.1265 µM): 0.627 | relative viability (NCI-H1395; first compound 0.4 µM): 0.69 | relative viability (NCI-H1395; first compound 4 µM): 0.741 | relative viability (LCLC-103H; first compound 0.04 µM): 0.949 | relative viability (LCLC-103H; first compound 0.1265 µM): 0.971 | relative viability (LCLC-103H; first compound 0.4 µM): 0.906 | relative viability (LCLC-103H; first compound 4 µM): 0.72 | relative viability (EPLC-272H; first compound 0.04 µM): 0.519 | relative viability (EPLC-272H; first compound 0.1265 µM): 0.381 | relative viability (EPLC-272H; first compound 0.4 µM): 0.26 | relative viability (EPLC-272H; first compound 4 µM): 0.254 | relative viability (NCI-H23; first compound 0.04 µM): 0.205 | relative viability (NCI-H23; first compound 0.1265 µM): 0.213 | relative viability (NCI-H23; first compound 0.4 µM): 0.227 | relative viability (NCI-H23; first compound 4 µM): 0.178 | relative viability (NCI-H2405; first compound 0.04 µM): 0.648 | relative viability (NCI-H2405; first compound 0.1265 µM): 0.744 | relative viability (NCI-H2405; first compound 0.4 µM): 0.726 | relative viability (NCI-H2405; first compound 4 µM): 0.612 | relative viability (H3255; first compound 0.04 µM): 0.952 | relative viability (H3255; first compound 0.1265 µM): 0.767 | relative viability (H3255; first compound 0.4 µM): 0.912 | relative viability (H3255; first compound 4 µM): 0.881 | relative viability (NCI-H1944; first compound 0.04 µM): 0.676 | relative viability (NCI-H1944; first compound 0.1265 µM): 0.729 | relative viability (NCI-H1944; first compound 0.4 µM): 0.938 | relative viability (NCI-H1944; first compound 4 µM): 0.824 | relative viability (NCI-H2087; first compound 0.04 µM): 0.217 | relative viability (NCI-H2087; first compound 0.1265 µM): 0.188 | relative viability (NCI-H2087; first compound 0.4 µM): 0.207 | relative viability (NCI-H2087; first compound 4 µM): 0.168 | relative viability (NCI-H1355; first compound 0.04 µM): 0.678 | relative viability (NCI-H1355; first compound 0.1265 µM): 0.693 | relative viability (NCI-H1355; first compound 0.4 µM): 0.704 | relative viability (NCI-H1355; first compound 4 µM): 0.805 | relative viability (LCLC-97TM1; first compound 0.04 µM): 0.657 | relative viability (LCLC-97TM1; first compound 0.1265 µM): 0.828 | relative viability (LCLC-97TM1; first compound 0.4 µM): 0.749 | relative viability (LCLC-97TM1; first compound 4 µM): 0.813 | relative viability (UMC-11; first compound 0.04 µM): 1.1 | relative viability (UMC-11; first compound 0.1265 µM): 0.903 | relative viability (UMC-11; first compound 0.4 µM): 1.03 | relative viability (UMC-11; first compound 4 µM): 0.675 | relative viability (NCI-H2085; first compound 0.04 µM): 0.477 | relative viability (NCI-H2085; first compound 0.1265 µM): 0.509 | relative viability (NCI-H2085; first compound 0.4 µM): 0.404 | relative viability (NCI-H2085; first compound 4 µM): 0.397 | relative viability (SK-MES-1; first compound 0.04 µM): 0.659 | relative viability (SK-MES-1; first compound 0.1265 µM): 0.764 | relative viability (SK-MES-1; first compound 0.4 µM): 0.664 | relative viability (SK-MES-1; first compound 4 µM): 0.475 | relative viability (HCC-44; first compound 0.04 µM): 0.9 | relative viability (HCC-44; first compound 0.1265 µM): 1.04 | relative viability (HCC-44; first compound 0.4 µM): 1.19 | relative viability (HCC-44; first compound 4 µM): 0.949 | relative viability (NCI-H520; first compound 0.04 µM): 0.249 | relative viability (NCI-H520; first compound 0.1265 µM): 0.256 | relative viability (NCI-H520; first compound 0.4 µM): 0.224 | relative viability (NCI-H520; first compound 4 µM): 0.221 | relative viability (NCI-H1993; first compound 0.04 µM): 0.872 | relative viability (NCI-H1993; first compound 0.1265 µM): 0.913 | relative viability (NCI-H1993; first compound 0.4 µM): 0.621 | relative viability (NCI-H1993; first compound 4 µM): 0.762 | relative viability (NCI-H1793; first compound 0.04 µM): 0.141 | relative viability (NCI-H1793; first compound 0.1265 µM): 0.177 | relative viability (NCI-H1793; first compound 0.4 µM): 0.164 | relative viability (NCI-H1793; first compound 4 µM): 0.135 | relative viability (NCI-H650; first compound 0.04 µM): 0.836 | relative viability (NCI-H650; first compound 0.1265 µM): 0.827 | relative viability (NCI-H650; first compound 0.4 µM): 0.831 | relative viability (NCI-H650; first compound 4 µM): 0.738 | relative viability (EMC-BAC-2; first compound 0.04 µM): 1.28 | relative viability (EMC-BAC-2; first compound 0.1265 µM): 1.17 | relative viability (EMC-BAC-2; first compound 0.4 µM): 1.08 | relative viability (EMC-BAC-2; first compound 4 µM): 1.19 | relative viability (NCI-H1563; first compound 0.04 µM): 0.512 | relative viability (NCI-H1563; first compound 0.1265 µM): 0.514 | relative viability (NCI-H1563; first compound 0.4 µM): 0.477 | relative viability (NCI-H1563; first compound 4 µM): 0.514 | relative viability (NCI-H1651; first compound 0.04 µM): 0.891 | relative viability (NCI-H1651; first compound 0.1265 µM): 0.719 | relative viability (NCI-H1651; first compound 0.4 µM): 0.885 | relative viability (NCI-H1651; first compound 4 µM): 0.634 | relative viability (NCI-H322M; first compound 0.04 µM): 0.767 | relative viability (NCI-H322M; first compound 0.1265 µM): 0.765 | relative viability (NCI-H322M; first compound 0.4 µM): 0.839 | relative viability (NCI-H322M; first compound 4 µM): 0.841 | relative viability (ChaGo-K-1; first compound 0.04 µM): 0.598 | relative viability (ChaGo-K-1; first compound 0.1265 µM): 0.596 | relative viability (ChaGo-K-1; first compound 0.4 µM): 0.512 | relative viability (ChaGo-K-1; first compound 4 µM): 0.394
